From paper PMC6282443 (Journal of Enzyme Inhibition and Medicinal Chemistry, 2018) come the findings set out here.

For orientation: IC50 means the concentration that gives 50% inhibition.

Common to all, as to format: cell-based, human
One assay has as its system HepG2 cells. Put plainly: MTT anti-proliferative assay, HepG2. To be noted: Homo sapiens, HepG2, 72 h, read-out: Anti-proliferative activity IC50, HepG2. Background: Tetrazolium assays rely on reduction of a dye to a coloured formazan, in cell work by metabolically active cells.
Another assay concerns A549 cells. Put plainly: cells. To be noted: Homo sapiens, A549, 72 h, read-out: Anti-proliferative activity IC50, A549.
A further assay concerns MCF-7 cells. The assay is described as follows: MTT anti-proliferative assay, MCF-7. The following applies: Homo sapiens, MCF7, 72 h, read-out: Anti-proliferative activity IC50, MCF-7.
In the next assay the test system is H1975 cells. To be noted: H1975, MTT.

Turning to `COc1cc2ncnc(Nc3ccc(F)c(Cl)c3)c2cc1NC(=O)N/N=C/c1ccc(N(C)C)cc1` [Compound 9, (E)-N-(4-((3-chloro-4-fluorophenyl)amino)-7-methoxyquinazolin-6-yl)-2-(4-(dimethylamino)benzylidene)hydrazine-1-carboxamide], the IC50 worked out at 0.72 ± 0.19 µM in the assay with HepG2 cells, 2.84 ± 0.22 µM in the assay on A549 cells and 2.63 ± 0.16 µM in the assay with MCF-7 cells. Further, in the assay with H1975 cells, the “inhibitory activity against H1975 cells (in words)” value (“inhibitory activity” for short) is listed as “poorer cellular activity”.
As to `CN(C)c1ccc(/C=N/NC(=O)Nc2cc3c(Nc4ccc(F)c(Cl)c4)ncnc3cc2O[C@H]2CCOC2)cc1` [Compound 10, (S,E)-N-(4-((3-chloro-4-fluorophenyl)amino)-7-((tetrahydrofuran-3-yl)oxy)quinazolin-6-yl)-2-(4-(dimethylamino)benzylidene)hydrazine-1-carboxamide], the figures for the IC50 with HepG2 cells, in the assay with A549 cells and with MCF-7 cells were 0.14 ± 0.08 µM, 1.51 ± 0.13 µM and 0.61 ± 0.12 µM, respectively. Also, the “inhibitory activity” value in the assay on H1975 cells is listed as “moderate inhibitory activity”.
On to `CCN(CC)c1ccc(/C=N/NC(=O)Nc2cc3c(Nc4ccc(F)c(Cl)c4)ncnc3cc2OC)cc1` [Compound 11, (E)-N-(4-((3-chloro-4-fluorophenyl)amino)-7-methoxyquinazolin-6-yl)-2-(4-(diethylamino)benzylidene)hydrazine-1-carboxamide], for which the figures for the IC50 in the assay with HepG2 cells, in the assay on A549 cells and with MCF-7 cells were 11.5 ± 1.16 µM, 31.4 ± 2.12 µM and 15.4 ± 1.14 µM, respectively.
Take `CCN(CC)c1ccc(/C=N/NC(=O)Nc2cc3c(Nc4ccc(F)c(Cl)c4)ncnc3cc2O[C@H]2CCOC2)cc1` [Compound 12, (S,E)-N-(4-((3-chloro-4-fluorophenyl)amino)-7-((tetrahydrofuran-3-yl)oxy)quinazolin-6-yl)-2-(4-(diethylamino)benzylidene)hydrazine-1-carboxamide]: the IC50 worked out at 0.31 ± 0.13 µM in the assay with HepG2 cells, 0.28 ± 0.12 µM in the assay with A549 cells and 0.35 ± 0.09 µM in the assay with MCF-7 cells. For the same molecule, the “inhibitory activity” value with H1975 cells was “moderate inhibitory activity”.
The corresponding values for `O=C(N/N=C/c1ncc(N2CCOCC2)s1)Nc1cc2c(Nc3ccc(F)c(Cl)c3)ncnc2cc1O[C@H]1CCOC1` [Compound 13, (S,E)-N-(4-((3-chloro-4-fluorophenyl)amino)-7-((tetrahydrofuran-3-yl)oxy)quinazolin-6-yl)-2-((5-morpholinothiazol-2-yl)methylene)hydrazine-1-carboxamide] are 1.35 ± 0.31 µM, 1.48 ± 0.19 µM, 1.35 ± 0.14 µM and “moderate inhibitory activity”.
In the case of `O=C(N/N=C/c1ccc(N2CCCC2)o1)Nc1cc2c(Nc3ccc(F)c(Cl)c3)ncnc2cc1O[C@H]1CCOC1` [Compound 15, (S,E)-N-(4-((3-chloro-4-fluorophenyl)amino)-7-((tetrahydrofuran-3-yl)oxy)quinazolin-6-yl)-2-((5-(pyrrolidin-1-yl)furan-2-yl)methylene)hydrazine-1-carboxamide], the values for the IC50 in the assay on HepG2 cells, with A549 cells and in the assay with MCF-7 cells were 8.17 ± 0.98 µM, 10.5 ± 0.77 µM and 14 ± 0.78 µM, respectively. For the same molecule, in the assay with H1975 cells, the “inhibitory activity” value was “poorer cellular activity”.
On to `CN(C)c1ccc(/C=N/NC(=O)Nc2cc3c(Nc4ccc(F)c(Cl)c4)ncnc3cc2O[C@H]2CCOC2)s1` [Compound 16, (S,E)-N-(4-((3-chloro-4-fluorophenyl)amino)-7-((tetrahydrofuran-3-yl)oxy)quinazolin-6-yl)-2-((5-(dimethylamino)thiophen-2-yl)methylene)hydrazine-1-carboxamide], for which the IC50 was determined as 2.43 ± 0.45 µM in the assay on HepG2 cells, 2.5 ± 0.36 µM in the assay on A549 cells and 3.68 ± 0.49 µM in the assay on MCF-7 cells. For the same molecule, the “inhibitory activity” value in the assay with H1975 cells is listed as “poorer cellular activity”.
Consider `O=C(N/N=C/c1ccc(N2CCCC2)nc1)Nc1cc2c(Nc3ccc(F)c(Cl)c3)ncnc2cc1O[C@H]1CCOC1` [Compound 18, (S,E)-N-(4-((3-chloro-4-fluorophenyl)amino)-7-((tetrahydrofuran-3-yl)oxy)quinazolin-6-yl)-2-((6-(pyrrolidin-1-yl)pyridin-3-yl)methylene)hydrazine-1-carboxamide], for which the IC50 in the assay on HepG2 cells came to 5.81 ± 0.61 µM; with A549 cells it was 19.2 ± 1.46 µM; with MCF-7 cells it was 12.4 ± 1.25 µM.
As to `COc1cc2ncnc(Nc3ccc(F)c(Cl)c3)c2cc1NC(=O)N/N=C/c1ccc(CN2CCCCC2)cc1` [Compound 22, (E)-N-(4-((3-chloro-4-fluorophenyl)amino)-7-methoxyquinazolin-6-yl)-2-(4-(piperidin-1-ylmethyl)benzylidene)hydrazine-1-carboxamide], the IC50 in the assay on HepG2 cells worked out at 59.5 ± 4.75 µM; in the assay with A549 cells it was 24.2 ± 2.27 µM; in the assay with MCF-7 cells, 31.1 ± 2.55 µM.
The corresponding values for `COc1cc2ncnc(Nc3ccc(F)c(Cl)c3)c2cc1NC(=O)N/N=C/c1ccc(CN2CCOCC2)cc1` [Compound 23, (E)-N-(4-((3-chloro-4-fluorophenyl)amino)-7-methoxyquinazolin-6-yl)-2-(4-(morpholinomethyl)benzylidene)hydrazine-1-carboxamide] are greater than 100 µM, greater than 100 µM and greater than 100 µM.
On to `CCN(CC)Cc1ccc(/C=N/NC(=O)Nc2cc3c(Nc4ccc(F)c(Cl)c4)ncnc3cc2O[C@H]2CCOC2)cc1` [Compound 26, (S,E)-N-(4-((3-chloro-4-fluorophenyl)amino)-7-((tetrahydrofuran-3-yl)oxy)quinazolin-6-yl)-2-(4-((diethylamino)methyl)benzylidene)hydrazine-1-carboxamide], for which the values for the IC50 in the assay with HepG2 cells, in the assay with A549 cells and in the assay on MCF-7 cells were 53.6 ± 4.75 µM, 23.1 ± 1.54 µM and 36.9 ± 3.54 µM, respectively.
Regarding `O=C(N/N=C/c1ccc(CN2CCCC2)cc1)Nc1cc2c(Nc3ccc(F)c(Cl)c3)ncnc2cc1O[C@H]1CCOC1` [Compound 27, (S,E)-N-(4-((3-chloro-4-fluorophenyl)amino)-7-((tetrahydrofuran-3-yl)oxy)quinazolin-6-yl)-2-(4-(pyrrolidin-1-ylmethyl)benzylidene)hydrazine-1-carboxamide], the IC50 with HepG2 cells, in the assay with A549 cells and with MCF-7 cells was greater than 100 µM in each case.
As for `O=C(N/N=C/c1ccc(CN2CCCCC2)cc1)Nc1cc2c(Nc3ccc(F)c(Cl)c3)ncnc2cc1O[C@H]1CCOC1` [Compound 28, (S,E)-N-(4-((3-chloro-4-fluorophenyl)amino)-7-((tetrahydrofuran-3-yl)oxy)quinazolin-6-yl)-2-(4-(piperidin-1-ylmethyl)benzylidene)hydrazine-1-carboxamide], the IC50 came to 3.13 ± 0.45 µM with HepG2 cells, 2.25 ± 0.32 µM in the assay with A549 cells and 4.3 ± 0.63 µM with MCF-7 cells.
As to `O=C(N/N=C/c1ccc(CN2CCOCC2)cc1)Nc1cc2c(Nc3ccc(F)c(Cl)c3)ncnc2cc1O[C@H]1CCOC1` [Compound 29, (S,E)-N-(4-((3-chloro-4-fluorophenyl)amino)-7-((tetrahydrofuran-3-yl)oxy)quinazolin-6-yl)-2-(4-(morpholinomethyl)benzylidene)hydrazine-1-carboxamide], the IC50 in the assay on HepG2 cells, in the assay on A549 cells and in the assay with MCF-7 cells was greater than 100 µM each time.
As for `CN1CCN(Cc2ccc(/C=N/NC(=O)Nc3cc4c(Nc5ccc(F)c(Cl)c5)ncnc4cc3O[C@H]3CCOC3)cc2)CC1` [Compound 30, (S,E)-N-(4-((3-chloro-4-fluorophenyl)amino)-7-((tetrahydrofuran-3-yl)oxy)quinazolin-6-yl)-2-(4-((4-methylpiperazin-1-yl)methyl)benzylidene)hydrazine-1-carboxamide], the IC50 stood at 17.5 ± 1.62 µM in the assay with HepG2 cells, 24.9 ± 1.66 µM in the assay with A549 cells and 21 ± 1.68 µM with MCF-7 cells.
The corresponding values for `CCN(CC)CCCOc1ccc(/C=N/NC(=O)Nc2cc3c(Nc4ccc(F)c(Cl)c4)ncnc3cc2O[C@H]2CCOC2)cc1` [Compound 50, (S,E)-N-(4-((3-chloro-4-fluorophenyl)amino)-7-((tetrahydrofuran-3-yl)oxy)quinazolin-6-yl)-2-(4-(3-(diethylamino)propoxy)benzylidene)hydrazine-1-carboxamide] are 1.08 ± 0.17 µM, 1.11 ± 0.14 µM and 1.23 ± 0.37 µM.
`O=C(N/N=C/c1ccc(OCCCN2CCCC2)cc1)Nc1cc2c(Nc3ccc(F)c(Cl)c3)ncnc2cc1O[C@H]1CCOC1` [Compound 51, (S,E)-N-(4-((3-chloro-4-fluorophenyl)amino)-7-((tetrahydrofuran-3-yl)oxy)quinazolin-6-yl)-2-(4-(3-(pyrrolidin-1-yl)propoxy)benzylidene)hydrazine-1-carboxamide]: the IC50 with HepG2 cells was found to be 17 ± 1.04 µM; in the assay on A549 cells, 33.8 ± 1.14 µM; with MCF-7 cells it was 28.5 ± 1.27 µM.
The matching figures for `O=C(N/N=C/c1ccc(OCCCN2CCCCC2)cc1)Nc1cc2c(Nc3ccc(F)c(Cl)c3)ncnc2cc1O[C@H]1CCOC1` [Compound 52, (S,E)-N-(4-((3-chloro-4-fluorophenyl)amino)-7-((tetrahydrofuran-3-yl)oxy)quinazolin-6-yl)-2-(4-(3-(piperidin-1-yl)propoxy)benzylidene)hydrazine-1-carboxamide]: 2.28 ± 0.26 µM, 4.65 ± 0.39 µM and 2.56 ± 0.46 µM.
The corresponding values for `O=C(N/N=C/c1ccc(OCCCN2CCOCC2)cc1)Nc1cc2c(Nc3ccc(F)c(Cl)c3)ncnc2cc1O[C@H]1CCOC1` [Compound 53, (S,E)-N-(4-((3-chloro-4-fluorophenyl)amino)-7-((tetrahydrofuran-3-yl)oxy)quinazolin-6-yl)-2-(4-(3-morpholinopropoxy)benzylidene)hydrazine-1-carboxamide] are greater than 100 µM, greater than 100 µM and greater than 100 µM.
For `CN1CCN(CCCOc2ccc(/C=N/NC(=O)Nc3cc4c(Nc5ccc(F)c(Cl)c5)ncnc4cc3O[C@H]3CCOC3)cc2)CC1` [Compound 54, (S,E)-N-(4-((3-chloro-4-fluorophenyl)amino)-7-((tetrahydrofuran-3-yl)oxy)quinazolin-6-yl)-2-(4-(3-(4-methylpiperazin-1-yl)propoxy)benzylidene)hydrazine-1-carboxamide], the IC50 came to 41.2 ± 2.04 µM with HepG2 cells, 40 ± 2.14 µM with A549 cells and 38.4 ± 1.26 µM in the assay with MCF-7 cells.
